Data as given in PubChem BioAssay AID2060889 (Molecular Pharmacology Branch, DTP, NCI, 2025).

Test system: LG0567-F671-PDC complex spheroids viability
Experiment: Anticancer human tumor LG0567-F671-PDC patient-derived lung adenocarcinoma cell line growth inhibition [RAS]
Conditions: for IC50: curve of first compound; for viability, T/C: stronger effect = lower value
Outline: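 Agents were tested in combination matrices in half-log decrements from a top concentration at or near clinical Cmax (10 microM if undetermined). Targets were multi-cell spheroids of tumour lines plus HUVEC and MSC stromal cells.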

[1] = second compound 0.000949 µM, first compound 0.00316 µM
[2] = second compound 0.000949 µM, first compound 0.01 µM
[3] = second compound 0.000949 µM, first compound 0.0316 µM
[4] = second compound 0.000949 µM, first compound 0.1 µM
[5] = second compound 0.000949 µM, first compound 0.316 µM
[6] = second compound 0.000949 µM, first compound 1 µM
[7] = second compound 0.003 µM, first compound 0.00316 µM
[8] = second compound 0.003 µM, first compound 0.01 µM
[9] = second compound 0.003 µM, first compound 0.0316 µM
[10] = second compound 0.003 µM, first compound 0.1 µM
[11] = second compound 0.003 µM, first compound 0.316 µM
[12] = second compound 0.003 µM, first compound 1 µM
[13] = second compound 0.00949 µM, first compound 0.00316 µM
[14] = second compound 0.00949 µM, first compound 0.01 µM
[15] = second compound 0.00949 µM, first compound 0.0316 µM
[16] = second compound 0.00949 µM, first compound 0.1 µM
[17] = second compound 0.00949 µM, first compound 0.316 µM
[18] = second compound 0.00949 µM, first compound 1 µM
[19] = second compound 0.03 µM, first compound 0.00316 µM
[20] = second compound 0.03 µM, first compound 0.01 µM
[21] = second compound 0.03 µM, first compound 0.0316 µM
[22] = second compound 0.03 µM, first compound 0.1 µM
[23] = second compound 0.03 µM, first compound 0.316 µM
[24] = second compound 0.03 µM, first compound 1 µM
[25] = second compound 0.0949 µM, first compound 0.00316 µM
[26] = second compound 0.0949 µM, first compound 0.01 µM
[27] = second compound 0.0949 µM, first compound 0.0316 µM
[28] = second compound 0.0949 µM, first compound 0.1 µM
[29] = second compound 0.0949 µM, first compound 0.316 µM
[30] = second compound 0.0949 µM, first compound 1 µM
[31] = second compound 0.3 µM, first compound 0.00316 µM
[32] = second compound 0.3 µM, first compound 0.01 µM
[33] = second compound 0.3 µM, first compound 0.0316 µM
[34] = second compound 0.3 µM, first compound 0.1 µM
[35] = second compound 0.3 µM, first compound 0.316 µM
[36] = second compound 0.3 µM, first compound 1 µM
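Further: spheroids exposed to compound for seven days before readout.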
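Wherever IC50 is given: luminescence signal used as a proxy for viable cells.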

In the case of `O=C(c1ccc(F)c(F)c1Nc1ccc(I)cc1F)N1CC(O)([C@@H]2CCCCN2)C1` + CCn1c(-c2cccnc2C(C)OC)c2c3cc(ccc31)N1CCOC(CC(NC(=O)C(C(C)C)N(C)C(=O)C3(F)CCN(C(=O)C#CC(C)(C)N(C)C)CC3)C(=O)N3CCCC(N3)C(=O)OCC(C)(C)C2)C1, the IC50 (second compound 0.000949 µM) is reported as < 3.16 nM, the IC50 (second compound 0.003 µM) is reported as < 3.16 nM and the IC50 (second compound 0.00949 µM) is reported as < 3.16 nM. The IC50 (second compound 0.03 µM) was < 3.16 nM, the IC50 (second compound 0.0949 µM) was < 3.16 nM and the IC50 (second compound 0.3 µM) was < 3.16 nM. The viability, T/C [1] was 13.4%, the viability, T/C [2] was 11.5% and the viability, T/C [3] was 9.69%. For the same molecule, the viability, T/C [4] was 6.79%, the viability, T/C [5] was 3.71% and the viability, T/C [6] was 1.41%. For the same molecule, the viability, T/C [7] was 12.6%, the viability, T/C [8] was 11.1% and the viability, T/C [9] was 9.13%. It also gave a viability, T/C [10] of 7.29%, a viability, T/C [11] of 3.35% and a viability, T/C [12] of 1.31%. For the same molecule, the viability, T/C [13] was 13.7%, the viability, T/C [14] was 11.1% and the viability, T/C [15] was 7.73%. It also gave a viability, T/C [16] of 7.78%, a viability, T/C [17] of 3.51% and a viability, T/C [18] of 1.48%. For the same molecule, the viability, T/C [19] was 10.9%, the viability, T/C [20] was 10.1% and the viability, T/C [21] was 7.96%. For the same molecule, the viability, T/C [22] was 5.76%, the viability, T/C [23] was 3.19% and the viability, T/C [24] was 1%. The viability, T/C [25] was 8.93%, the viability, T/C [26] was 7.87% and the viability, T/C [27] was 7.13%. The viability, T/C [28] was 4.53%, the viability, T/C [29] was 2.24% and the viability, T/C [30] was 0.97%. The viability, T/C [31] was 7.33%, the viability, T/C [32] was 7.35% and the viability, T/C [33] was 5.27%. It also gave a viability, T/C [34] of 3.14%, a viability, T/C [35] of 1.96% and a viability, T/C [36] of 0.65%.

Work on `CCC(CC)c1cc(NC2CCC(N)C2)n2nccc2n1` (stereo unspecified) + C#Cc1c(F)ccc2cc(O)cc(-c3ncc4c(N5CC6CCC(C5)N6)nc(OCC56CCCN5CC(F)C6)nc4c3F)c12 yielded an IC50 (second compound 0.0316 µM) of 1900 nM, an IC50 (second compound 0.1 µM) of 1710 nM and an IC50 (second compound 0.316 µM) of 1250 nM. For the same molecule, the IC50 (second compound 1 µM) was < 31.6 nM, the IC50 (second compound 3.16 µM) was < 31.6 nM and the IC50 (second compound 10 µM) was < 31.6 nM. For the same molecule, the viability, T/C (second compound 0.0316 µM, first compound 0.0316 µM) was 102%, the viability, T/C (second compound 0.0316 µM, first compound 0.1 µM) was 97.2% and the viability, T/C (second compound 0.0316 µM, first compound 0.316 µM) was 111%. For the same molecule, the viability, T/C (second compound 0.0316 µM, first compound 1 µM) was 119%, the viability, T/C (second compound 0.0316 µM, first compound 3.16 µM) was 4.67% and the viability, T/C (second compound 0.0316 µM, first compound 10 µM) was 0.25%. The viability, T/C (second compound 0.1 µM, first compound 0.0316 µM) was 78.4%, the viability, T/C (second compound 0.1 µM, first compound 0.1 µM) was 83.5% and the viability, T/C (second compound 0.1 µM, first compound 0.316 µM) was 92.2%. It also gave a viability, T/C (second compound 0.1 µM, first compound 1 µM) of 104%, a viability, T/C (second compound 0.1 µM, first compound 3.16 µM) of 4.32% and a viability, T/C (second compound 0.1 µM, first compound 10 µM) of 0.47%. The viability, T/C (second compound 0.316 µM, first compound 0.0316 µM) was 60.3%, the viability, T/C (second compound 0.316 µM, first compound 0.1 µM) was 57.3% and the viability, T/C (second compound 0.316 µM, first compound 0.316 µM) was 59.7%. The viability, T/C (second compound 0.316 µM, first compound 1 µM) was 67.8%, the viability, T/C (second compound 0.316 µM, first compound 3.16 µM) was 3.78% and the viability, T/C (second compound 0.316 µM, first compound 10 µM) was 0.39%. The viability, T/C (second compound 1 µM, first compound 0.0316 µM) was 32.4%, the viability, T/C (second compound 1 µM, first compound 0.1 µM) was 37% and the viability, T/C (second compound 1 µM, first compound 0.316 µM) was 43.4%. The viability, T/C (second compound 1 µM, first compound 1 µM) was 38.2%, the viability, T/C (second compound 1 µM, first compound 3.16 µM) was 3.47% and the viability, T/C (second compound 1 µM, first compound 10 µM) was 0.38%. It also gave a viability, T/C (second compound 3.16 µM, first compound 0.0316 µM) of 18.2%, a viability, T/C (second compound 3.16 µM, first compound 0.1 µM) of 17.8% and a viability, T/C (second compound 3.16 µM, first compound 0.316 µM) of 20.2%. It also gave a viability, T/C (second compound 3.16 µM, first compound 1 µM) of 17.1%, a viability, T/C (second compound 3.16 µM, first compound 3.16 µM) of 2.86% and a viability, T/C (second compound 3.16 µM, first compound 10 µM) of 0.37%. It also gave a viability, T/C (second compound 10 µM, first compound 0.0316 µM) of 10.3%, a viability, T/C (second compound 10 µM, first compound 0.1 µM) of 11.3% and a viability, T/C (second compound 10 µM, first compound 0.316 µM) of 10.3%. The viability, T/C (second compound 10 µM, first compound 1 µM) was 9.32%, the viability, T/C (second compound 10 µM, first compound 3.16 µM) was 1.25% and the viability, T/C (second compound 10 µM, first compound 10 µM) was 0.15%.

`C=CC(=O)N1CCN(c2nc(OCC3CCCN3C)nc3c(F)c(-c4nc(N)cc(C)c4C(F)(F)F)c(Cl)cc23)C(C)C1` (stereo unspecified) + CCn1c(-c2cc(N3CCN(C)CC3)cnc2C(C)OC)c2c3cc(ccc31)-c1csc(n1)CC(NC(=O)C1CC1C)C(=O)N1CCCC(N1)C(=O)OCC(C)(C)C2 was tested, and the IC50 (second compound 0.000949 µM) was < 3.16 nM, the IC50 (second compound 0.003 µM) was < 3.16 nM and the IC50 (second compound 0.00949 µM) was < 3.16 nM. For the same molecule, the IC50 (second compound 0.03 µM) was < 3.16 nM, the IC50 (second compound 0.0949 µM) was < 3.16 nM and the IC50 (second compound 0.3 µM) was < 3.16 nM. For the same molecule, the viability, T/C [1] was 9.35%, the viability, T/C [2] was 9.1% and the viability, T/C [3] was 8%. For the same molecule, the viability, T/C [4] was 8.66%, the viability, T/C [5] was 7.95% and the viability, T/C [6] was 7.17%. The viability, T/C [7] was 5.52%, the viability, T/C [8] was 6.02% and the viability, T/C [9] was 5.86%. The viability, T/C [10] was 7.54%, the viability, T/C [11] was 7.84% and the viability, T/C [12] was 6.72%. For the same molecule, the viability, T/C [13] was 5.09%, the viability, T/C [14] was 4.57% and the viability, T/C [15] was 5.64%. It also gave a viability, T/C [16] of 4.78%, a viability, T/C [17] of 5.6% and a viability, T/C [18] of 4.86%. The viability, T/C [19] was 3.64%, the viability, T/C [20] was 3.58% and the viability, T/C [21] was 3.59%. For the same molecule, the viability, T/C [22] was 3.48%, the viability, T/C [23] was 4.15% and the viability, T/C [24] was 3.55%. The viability, T/C [25] was 3.37%, the viability, T/C [26] was 3.02% and the viability, T/C [27] was 2.73%. For the same molecule, the viability, T/C [28] was 2.71%, the viability, T/C [29] was 2.59% and the viability, T/C [30] was 3.04%. For the same molecule, the viability, T/C [31] was 2.73%, the viability, T/C [32] was 2.79% and the viability, T/C [33] was 2.44%. The viability, T/C [34] was 2.81%, the viability, T/C [35] was 2.66% and the viability, T/C [36] was 2.96%.
